# Earlier results in patent US5516921A, “Thiono-lactone inhibitors of protein trafficking and uses therefor” (Ariad Pharmaceuticals, Inc., priority 1994, dated 1996).
# Tests used:
# [1] = in vivo
smiles,measurement,setting,value
"C[C@H]1CCC/C=C/[C@@H]2C[C@H](O)C[C@H]2[C@H](O)/C=C/C(=O)O1 [BFA, Brefeldin A]",time at which release of β-COP from the Golgi is complete,β-COP; complete release after BFA treatment,1 to 2 min
same,time at which release of β-COP from the Golgi occurs after treatment,β-COP; onset of release after BFA treatment,≤ 20 s
same,biological half-life,[1],short
